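Where inhibition never reached the appropriate level, the endpoint shown equals the highest concentration tested. Otherwise, values were interpolated linearly from a five-concentration, 48-hour dose response in 96-well plates. Abbreviation: GI50, concentration required for 50% inhibition of growth.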 The source made the active and inactive calls. Rule as the data show it: active = GI50 up to about 1.1 µM and inactive = higher.
Experiments:
Experiment in all cases: NCI tumour cell line growth inhibition, 48 h
TK-10 = tested on: TK-10
K562 = tested on: K562
CCRF-CEM = tested on: CCRF-CEM
HL-60 = tested on: HL-60
HOP-18 = tested on: HOP-18
786-0 = tested on: 786-0
OVCAR-4 = tested on: OVCAR-4
ACHN = tested on: ACHN
NCI-H460 = tested on: NCI-H460
IGROV-1 = tested on: IGROV-1
HCC 2998 = tested on: HCC 2998
NCI-H23 = tested on: NCI-H23
OVCAR-8 = tested on: OVCAR-8
DMS-114 = tested on: DMS-114
SNB-75 = tested on: SNB-75
HOP-92 = tested on: HOP-92
NCI-H522 = tested on: NCI-H522
CAKI-1 = tested on: CAKI-1
UACC-257 = tested on: UACC-257
LOX IMVI = tested on: LOX IMVI
U-251 = tested on: U-251
COLO 205 = tested on: COLO 205
KM-20L2 = tested on: KM-20L2
DLD-1 = tested on: DLD-1
HCT-116 = tested on: HCT-116
SR = tested on: SR
NCI-H226 = tested on: NCI-H226
RPMI-8226 = tested on: RPMI-8226
MOLT-4 = tested on: MOLT-4
M14 = tested on: M14
UO-31 = tested on: UO-31
A549 = tested on: A549
OVCAR-3 = tested on: OVCAR-3
UACC-62 = tested on: UACC-62
SN12C = tested on: SN12C
A498 = tested on: A498
Malme-3M = tested on: Malme-3M
M19-MEL = tested on: M19-MEL
KM12 = tested on: KM12
SF-295 = tested on: SF-295
SW-620 = tested on: SW-620
SF-539 = tested on: SF-539
EKVX = tested on: EKVX
HCT-15 = tested on: HCT-15
SK-OV-3 = tested on: SK-OV-3
HT-29 = tested on: HT-29
SF-268 = tested on: SF-268
HOP-62 = tested on: HOP-62
SK-MEL-2 = tested on: SK-MEL-2
SK-MEL-5 = tested on: SK-MEL-5
RXF 393 = tested on: RXF 393
LXFL 529 = tested on: LXFL 529
DMS-273 = tested on: DMS-273
SNB-78 = tested on: SNB-78
XF498 = tested on: XF498
OVCAR-5 = tested on: OVCAR-5
SK-MEL-28 = tested on: SK-MEL-28
SNB-19 = tested on: SNB-19

## O=C(CCc1nnc(S)[nH]1)Nc1ccccc1Cl
TK-10
  GI50: > 100 µM (inactive)
K562
  GI50: > 100 µM (inactive)
CCRF-CEM
  GI50: > 100 µM (inactive)
HL-60
  GI50: > 100 µM (inactive)
HOP-18
  GI50: > 100 µM (inactive)
786-0
  GI50: > 100 µM (inactive)
OVCAR-4
  GI50: > 100 µM (inactive)
ACHN
  GI50: > 100 µM (inactive)
NCI-H460
  GI50: > 100 µM (inactive)
IGROV-1
  GI50: > 100 µM (inactive)
HCC 2998
  GI50: > 100 µM (inactive)
NCI-H23
  GI50: > 100 µM (inactive)
OVCAR-8
  GI50: > 100 µM (inactive)
DMS-114
  GI50: > 100 µM (inactive)
SNB-75
  GI50: > 100 µM (inactive)
HOP-92
  GI50: > 100 µM (inactive)
NCI-H522
  GI50: > 100 µM (inactive)
CAKI-1
  GI50: > 100 µM (inactive)
UACC-257
  GI50: > 100 µM (inactive)
LOX IMVI
  GI50: > 100 µM (inactive)
U-251
  GI50: > 100 µM (inactive)
COLO 205
  GI50: > 100 µM (inactive)
KM-20L2
  GI50: > 100 µM (inactive)
DLD-1
  GI50: > 100 µM (inactive)
HCT-116
  GI50: > 100 µM (inactive)
SR
  GI50: > 100 µM (inactive)
NCI-H226
  GI50: > 100 µM (inactive)
RPMI-8226
  GI50: > 100 µM (inactive)
MOLT-4
  GI50: > 100 µM (inactive)
M14
  GI50: > 100 µM (inactive)
UO-31
  GI50: > 100 µM (inactive)
A549
  GI50: > 100 µM (inactive)
OVCAR-3
  GI50: > 100 µM (inactive)
UACC-62
  GI50: > 100 µM (inactive)
SN12C
  GI50: > 100 µM (inactive)
A498
  GI50: > 100 µM (inactive)
Malme-3M
  GI50: > 100 µM (inactive)
M19-MEL
  GI50: > 100 µM (inactive)
KM12
  GI50: > 100 µM (inactive)
SF-295
  GI50: > 100 µM (inactive)
SW-620
  GI50: 18.2 µM (inactive)
SF-539
  GI50: > 100 µM (inactive)
EKVX
  GI50: > 100 µM (inactive)
HCT-15
  GI50: 20.2 µM
SK-OV-3
  GI50: > 100 µM (inactive)
HT-29
  GI50: > 100 µM (inactive)
SF-268
  GI50: > 100 µM (inactive)
HOP-62
  GI50: > 100 µM (inactive)
SK-MEL-2
  GI50: > 100 µM (inactive)
SK-MEL-5
  GI50: > 100 µM (inactive)
RXF 393
  GI50: > 100 µM (inactive)
LXFL 529
  GI50: > 100 µM (inactive)
DMS-273
  GI50: > 100 µM (inactive)
SNB-78
  GI50: > 100 µM (inactive)
XF498
  GI50: > 100 µM (inactive)
OVCAR-5
  GI50: > 100 µM (inactive)
SK-MEL-28
  GI50: > 100 µM (inactive)
SNB-19
  GI50: > 100 µM (inactive)

## O=c1c2cc3ccccc3n2c(=O)c2cc3ccccc3n12
TK-10
  GI50: > 100 µM (inactive)
K562
  GI50: > 100 µM (inactive)
CCRF-CEM
  GI50: > 100 µM (inactive)
HL-60
  GI50: > 100 µM (inactive)
HOP-18
  GI50: > 100 µM (inactive)
786-0
  GI50: > 100 µM (inactive)
OVCAR-4
  GI50: > 100 µM (inactive)
ACHN
  GI50: > 100 µM (inactive)
NCI-H460
  GI50: > 100 µM (inactive)
HCC 2998
  GI50: > 100 µM (inactive)
NCI-H23
  GI50: > 100 µM (inactive)
OVCAR-8
  GI50: > 100 µM (inactive)
DMS-114
  GI50: > 100 µM (inactive)
SNB-75
  GI50: > 100 µM (inactive)
HOP-92
  GI50: > 100 µM (inactive)
NCI-H522
  GI50: > 100 µM (inactive)
CAKI-1
  GI50: > 100 µM (inactive)
UACC-257
  GI50: > 100 µM (inactive)
LOX IMVI
  GI50: > 100 µM (inactive)
U-251
  GI50: > 100 µM (inactive)
KM-20L2
  GI50: > 100 µM (inactive)
DLD-1
  GI50: > 100 µM (inactive)
HCT-116
  GI50: > 100 µM (inactive)
SR
  GI50: > 100 µM (inactive)
NCI-H226
  GI50: > 100 µM (inactive)
RPMI-8226
  GI50: > 100 µM (inactive)
MOLT-4
  GI50: > 100 µM (inactive)
M14
  GI50: > 100 µM (inactive)
UO-31
  GI50: > 100 µM (inactive)
A549
  GI50: > 100 µM (inactive)
OVCAR-3
  GI50: > 100 µM (inactive)
UACC-62
  GI50: > 100 µM (inactive)
SN12C
  GI50: > 100 µM (inactive)
A498
  GI50: > 100 µM (inactive)
Malme-3M
  GI50: > 100 µM (inactive)
M19-MEL
  GI50: > 100 µM (inactive)
KM12
  GI50: 89.5 µM (inactive)
SF-295
  GI50: > 100 µM (inactive)
SW-620
  GI50: > 100 µM (inactive)
SF-539
  GI50: > 100 µM (inactive)
EKVX
  GI50: > 100 µM (inactive)
HCT-15
  GI50: > 100 µM
HT-29
  GI50: > 100 µM (inactive)
SF-268
  GI50: > 100 µM (inactive)
SK-MEL-2
  GI50: > 100 µM (inactive)
SK-MEL-5
  GI50: > 100 µM (inactive)
RXF 393
  GI50: > 100 µM (inactive)
LXFL 529
  GI50: > 100 µM (inactive)
DMS-273
  GI50: > 100 µM (inactive)
SNB-78
  GI50: > 100 µM (inactive)
XF498
  GI50: > 100 µM (inactive)
OVCAR-5
  GI50: > 100 µM (inactive)
SK-MEL-28
  GI50: > 100 µM (inactive)
SNB-19
  GI50: > 100 µM (inactive)

Reference: ChEMBL document CHEMBL1201862, “PubChem BioAssay data set” (2004)
